Patent US11021490B2, “Pyridinium oxazole dyad scaffold and a process for preparation thereof” (COUNCIL OF SCIENTIFIC AND INDUSTRIAL RESEARCH, priority 2016, dated 2021)

Tests used:
[1] = Spectral (photophysical) properties of representative derivatives in DCM at room temperature; format: physicochemical; design: τf (fluorescent lifetime): unit not given here; conditions: for ΔStokes (Stokes shift=λem−λabs) / λabs (maximum absorption band more than 300 nm) / λem (excited at the longest maximum absorption band) / λex (excited wavelength) / τf (fluorescent lifetime) / ϕf (quantum yield): DCM, RM, 10−5M; for ϕf (quantum yield): quinine sulfate and rhodamine 6G as standard; for Effect of substituent on the fluorescent properties / emission: CH2Cl2 at RT
Description: The photo-physical properties of representative salts are studied in CH2Cl2 at RT (FIG. 1).
The corresponding absorption, emission and excitation, spectra are depicted in FIGS. 3, 4 and 5. […] The compounds display good quantum yields upto 0.76.
a The maximum absorption bands more than 300 nm; b Excited at the longest maximum absorption band in CH2Cl2; ^cExcited wavelength; ^dStokes shift=λem−λabs; ^eQuinine sulfate and rhodamine 6G was used as the standard; ^fFluorescent lifetime
The current invention provides compounds that display brightly fluorescence as well as a good ϕf. The salts are a novel class of fluorescent materials that contain a pyridinium-oxazole functional group and the photo-physical properties of representative salts are studied in CH2Cl2 at RT The absorption and excitation maxima, the photoluminescence (PL) maxima and quantum yields (FF), as well as the excited state lifetimes (tf) of these compounds in CH2Cl2 solution are listed in Tables 3, whereas the corresponding absorption, emission, excitation spectra are depicted in FIGS. 3, 4 and 5. […] These observations are indicative of a predominant π-π* character for the lowest excited state, and the life time tf values are consistent with a singlet multiplicity. Most of these compounds display good quantum yields upto 0.76 (3n). The radiative rate constants are barely affected by the substitution pattern, an indication of the similar excited state character for all compounds.

[2] = system: MCF-7 cells; assay: Localization and staining of mitochondria in living MCF-7 cells by fluorescence microscopy, with MitoTracker Green costaining; format: cell-based; conditions: 1 μM, 1 h
Description: MCF-7 cells were obtained from National Centre for Cell Science, Pune, India. For bio imaging purpose, the cells were seeded in a 6 well plate at a density of 10^5 cells/mL in Dulbecco's Modified Eagle's Medium+Ham's F12 containing 10% fetal bovine serum and a 0.1% antibiotic solution for 24 h at […] and 5% CO2 for adherence
MCF-7 cells (1×10^4 cells/mL/well) were seeded in a 6-well tissue culture plate for 48 h. The cells were then treated with 1 μM concentration of different organic molecules for 30 minutes. After thorough washing with 1×PBS (P^H 7.4), the cells are fixed used paraformaldehye (4% in PBS) for 15 minutes. Then cells were washed using 1×PBS twice. Further cells are permeated using 0.4% triton X in PBS for 30 seconds followed by treatment with 1 μg/mL of DAPI solution for 15 minutes. The cells are again ished twice with 1×PBS (P^H 7.4). Finally, a confocal fluorescence microscope (Nikon Eclipse: TE 2000-E, Japan). Bioimaging studies are carried out using red and green filters. (FIG. 2)
Cells are cultured and maintained as described above. Cells were treated with 1 μM compound for 30 min followed by washing with PBS. Further cells were treated with […] MG for 10 min and then washed with PBS. Cells were fixed and treated with DAPI as described above.
MCF-7 cells were incubated with 1 μM of 3n for 1 h, and excess dyes were washed away by buffer solution.

| SMILES | melting point | ΔStokes (Stokes shift=λem−λabs) [1] | λabs (maximum absorption band more than 300 nm) [1] | λem (excited at the longest maximum absorption band) [1] | λex (excited wavelength) [1] | τf (fluorescent lifetime) [1] | ϕf (quantum yield) [1] | Effect of substituent on the fluorescent properties / emission [1] | Staining / localization in mitochondria [2] |
| --- | --- | --- | --- | --- | --- | --- | --- | --- | --- |
| F[B-](F)(F)F.c1ccc2c(c1)-c1cccc3oc(-c4cccc5ccccc45)c-2[n+]13 | 198 to 200 °C | – | – | – | – | – | – | – | – |
| Cc1ccc(-c2oc3cccc4[n+]3c2-c2ccccc2-4)cc1.F[B-](F)(F)F | 222 to 223 °C | – | – | – | – | – | – | – | – |
| CC(C)c1ccc(-c2oc3cccc4[n+]3c2-c2ccccc2-4)cc1.F[B-](F)(F)F | 214 to 215 °C | – | – | – | – | – | – | – | – |
| CCCCOc1ccc(-c2oc3cccc4[n+]3c2-c2ccccc2-4)cc1.F[B-](F)(F)F | 183 to 185 °C | – | – | – | – | – | – | – | – |
| CCCCC(=O)c1ccc(-c2oc3cccc4[n+]3c2-c2ccccc2-4)cc1.F[B-](F)(F)F | 202 to 204 °C | – | – | – | – | – | – | – | – |
| COc1ccccc1-c1oc2cccc3[n+]2c1-c1ccccc1-3.F[B-](F)(F)F | 228 to 229 °C | – | – | – | – | – | – | – | – |
| Clc1cccc(-c2oc3cccc4[n+]3c2-c2ccccc2-4)c1.F[B-](F)(F)F | 204 to 206 °C | – | – | – | – | – | – | – | – |
| Cc1cccc2c1-c1cccc3oc(-c4ccccc4)c-2[n+]13.F[B-](F)(F)F | 220 to 221 °C | – | – | – | – | – | – | – | – |
| Cc1ccc2c(c1)-c1cccc3oc(-c4ccccc4)c-2[n+]13.F[B-](F)(F)F | 224 to 226 °C | – | – | – | – | – | – | – | – |
| F[B-](F)(F)F.Fc1ccc2c(c1)-c1cccc3oc(-c4ccccc4)c-2[n+]13 | 255 to 256 °C | – | – | – | – | – | – | – | – |
| Clc1ccc2c(c1)-c1cccc3oc(-c4ccccc4)c-2[n+]13.F[B-](F)(F)F | 208 to 210 °C | – | – | – | – | – | – | – | – |
| Clc1ccc2c(c1)-c1c(-c3ccccc3)oc3cccc-2[n+]13.F[B-](F)(F)F | 206 to 208 °C | – | – | – | – | – | – | – | – |
| F[B-](F)(F)F.c1ccc(-c2oc3cccc4[n+]3c2-c2ccccc2-4)cc1 [3a, 1-phenylbenzo[a]oxazolo[4,3,2-cd]indolizin-10-ium tetrafluoroborate] | 192 to 193 °C | 036 nm | 368 nm | 404 nm | 338 nm | 1.2 | 0.10 | – | – |
| F[B-](F)(F)F.c1ccc2c(c1)-c1cccc3oc(-c4ccc5ccccc5c4)c-2[n+]13 [3c, 1-(naphthalen-2-yl)benzo[a]oxazolo[4,3,2-cd]indolizin-10-iumtetrafluoroborate] | – | 071 nm | 410 nm | 481 nm | 364 nm | 5.2 | 0.49 | stronger effect on the fluorescent properties | – |
| F[B-](F)(F)F.c1ccc2c(c1)-c1cccc3oc(-c4cc5ccccc5c5ccccc45)c-2[n+]13 [3d, 1-(phenanthren-9-yl)benzo[a]oxazolo[4,3,2-cd]indolizin-10-ium tetrafluoroborate] | 230 to 232 °C | 076 nm | 411 nm | 487 nm | 365 nm | 7.2 | 0.54 | stronger effect on the fluorescent properties | – |
| COc1ccc(-c2oc3cccc4[n+]3c2-c2ccccc2-4)cc1.F[B-](F)(F)F [3j, 1-(4-methoxyphenyl)benzo[a]oxazolo[4,3,2-cd]indolizin-10-ium tetrafluoroborate] | 190 to 192 °C | 053 nm | 405 nm | 458 nm | 338 nm | 2.4 | 0.42 | only a modest effect on the fluorescent properties | – |
| F[B-](F)(F)F.Fc1ccc(-c2oc3cccc4[n+]3c2-c2ccccc2-4)cc1 [3l, 1-(4-fluorophenyl)benzo[a]oxazolo[4,3,2-cd]indolizin-10-ium tetrafluoroborate] | 254 to 255 °C | 042 nm | 372 nm | 414 nm | 343 nm | 0.9 | 0.09 | only a modest effect on the fluorescent properties | – |
| Clc1ccc(-c2oc3cccc4[n+]3c2-c2ccccc2-4)cc1.F[B-](F)(F)F [3m, 1-(4-chlorophenyl)benzo[a]oxazolo[4,3,2-cd]indolizin-10-ium tetrafluoroborate] | 274 to 275 °C | 040 nm | 370 nm | 410 nm | 339 nm | 1.7 | 0.19 | – | – |
| CN(C)c1ccc(-c2oc3cccc4[n+]3c2-c2ccccc2-4)cc1.F[B-](F)(F)F [3n, 1-(4-(dimethylamino)phenyl)benzo[a]oxazolo[4,3,2-cd]indolizin-10-ium tetrafluoroborate] | 242 to 244 °C | 049 nm | 506 nm | 555 nm | 511 nm | 9.1 | 0.76 | – | stains specifically the mitochondrial region |
| COc1cccc(-c2oc3cccc4[n+]3c2-c2ccccc2-4)c1.F[B-](F)(F)F [3q, 1-(3-methoxyphenyl)benzo[a]oxazolo[4,3,2-cd]indolizin-10-ium tetrafluoroborate] | 206 to 208 °C | 079 nm | 376 nm | 455 nm | 332 nm | 2.0 | 0.20 | – | – |
| COc1ccc(Cl)c(-c2cc3ccccc3c3cccc(=O)n23)c1 [3y″, 6-(2-chloro-5-methoxyphenyl)-4H-pyrido[2,1-a]isoquinolin-4-one] | 186 to 187 °C | – | – | – | – | – | – | – | – |
| Cc1ccc(/C=c2\c3ccccc3c3cccc(=O)n23)cc1Cl [3z″, (E)-6-(3-chloro-4-methylbenzylidene)pyrido[2,1-a]isoindol-4(6H)-one] | 194 to 195 °C | – | – | – | – | – | – | – | – |
